Results published in article PMC12040169 (PLOS Biology, 2025).

Experiment: in vitro
Details: human, hela cells, % viability

Structure (SMILES)	viability at 28.5 h, 10 µM	viability at 28.5 h, 10 µM (bulk resorufin, single well)
CN1CCN(C(=O)c2ccsc2NS(=O)(=O)/C=C/c2ccccc2)CC1 [CBK042267]	104%	–
CC(C)NC(=O)CSc1nc2ccccc2[nH]1 [CBK072235]	92.9%	–
CCOC(=O)Nc1ccc2ccccc2n1 [CBK028207]	87.3%	–
O=C1N=C(NC2CCCCCC2)SC1CC(=O)N1CCOC12CCCCC2 (stereo not drawn) [CBK067355]	94%	–
c1cc(Sc2nccnc2N2CCCC2)ccn1 [CBK093807]	92.3%	–
O=S(=O)(c1ccc2ccccc2c1)N1CCN(CCCOc2ccccc2Cl)CC1 [CBK267018]	106%	–
COc1ccc([C@]23CC[C@H](NC(=O)Nc4ccc(F)cc4F)C[C@H]2N(C)CC3)cc1OC [CBK066917T]	90.6%	–
CCN1CC2(CCN(CCCCC3NC(=O)NC3=O)CC2)c2ccccc21 (stereo not drawn) [CBK131489]	96%	–
Cc1nc(C2CCN(C(=O)c3ccn(C)n3)CC2)c2sccn12 [CBK285202]	93.4%	–
c1ccc(Oc2ccccc2-c2cc(NCCc3c[nH]cn3)ncn2)cc1 [CBK037845]	82.9%	–
Cc1cc2nnc(SC(C)c3nc(-c4ccccc4)no3)n2c(C)n1 (stereo not drawn) [CBK298306]	91.7%	–
O=C1NCCCNC(=O)C2(C/C=C/CCOc3ccccc31)CCN(C(=O)CN1CCCC1)CC2 [CBK292052]	101%	–
CC1Cc2cc(C(=O)N3CCCCC3CCN3CCCC3)ccc2O1 (stereo not drawn) [CBK282094]	100%	–
COc1ccc(C2=C(CC(=O)O)C(=O)CC2)cc1 [CBK264812]	89.2%	–
COc1ccc(N(Cc2cccnc2)C(=O)c2ccc(-c3ccccc3)[nH]c2=O)cc1 [CBK283089]	105%	–
Cn1cccc1C(=O)NCc1ccccc1OC1CCNC1 (stereo not drawn) [CBK029463T]	88.7%	–
Cc1nn(C)c(Cl)c1S(=O)(=O)N1CCN(C)CC1 [CBK062426]	106%	–
O=C(CN1CCC(c2ccc(F)cc2)CC1)Nc1nccs1 [CBK283566]	90%	–
COc1cccc(OCc2ccc(Cn3ccn(C(=O)CCCC(C)C)c3=O)cc2)c1 [CBK106638]	90.5%	–
COc1ccc(-c2ccc(C(=O)N(C)C)c(N3CCN(C(=O)c4ccco4)CC3)n2)cc1 [CBK106020]	86.3%	–
CCCCc1ccc(N)c(C)c1 [CBK164057C]	89.9%	–
COc1cncc(C(NC(=O)Cn2ccccc2=O)[C@H]2C[C@@H](O)C2)c1 (stereo partly drawn) [CBK307557]	92.5%	–
CCc1noc(C)c1C(=O)NCC1CCCCN1CC (stereo not drawn) [CBK282201]	97.3%	–

Structure (SMILES)	viability at 28.5 h, 10 µM	viability at 28.5 h, 10 µM (bulk resorufin, single well)
COc1ccc(S(=O)(=O)NCCN2CCOCC2)c(C)c1C [CBK266479]	99.4%	–
O=C(CCn1cnc2ccccc21)N1CC[C@@H](c2ccccc2)[C@H](O)C1 [CBK283712]	102%	–
Cn1ccnc1C1(O)CCN(C(=O)Nc2ccccc2F)CC1 [CBK282280]	112%	–
c1ccc(-c2cc(CC3(NCc4cccnc4)COC3)no2)nc1 [CBK289238]	83.5%	–
c1ccc(Oc2ccc(Nc3cccc(-c4ccc5ccccc5c4)n3)cc2)cc1 [CBK037636]	112%	–
CCOC(=O)C(NC(=O)c1cn(C)cn1)c1cccc(C)c1C (stereo not drawn) [CBK304098]	107%	–
O=C(NCCN1CCCC1)c1cnc2cc(C(F)(F)F)ccc2c1O [CBK107426]	104%	–
CCCN(Cc1ccoc1)CC1CC1 [CBK018931]	94.6%	–
O=C(c1ccc([N+](=O)[O-])cc1Cl)N1CCN(Cc2ccccc2)CC1 [CBK261778]	103%	–
c1ccc(CSc2nnc3[nH]c4ccccc4n23)cc1 [CBK267841]	91.9%	–
COc1ccc(NS(=O)(=O)c2ccc3c(c2)oc(=O)c2cc(S(=O)(=O)Nc4ccc(OC)cc4)ccc23)cc1 [CBK268439]	104%	–
CC(=O)Nc1cccc(-n2c(C)nnc2SCC2CCCCC2)c1 [CBK304590]	86.3%	–
COc1ccc([C@]23CC[C@H](NC(=O)Nc4ccc(C#N)c(Cl)c4)C[C@H]2N(C)CC3)cc1OC [CBK066928T]	–	94.9%
COc1ncccc1C(=O)N1CCc2ccccc21 [CBK200402]	91.5%	–
O=[N+]([O-])c1ccc(-c2nc3ccc(Br)cn3[n+]2[O-])cc1 [CBK262335]	96.5%	–
CC1CCc2c(sc3ncnc(SCC(=O)N(C)C)c23)C1 (stereo not drawn) [CBK305946]	92.9%	–
Cc1ccc(S(=O)(=O)N2CCOCC2)cc1S(=O)(=O)N1CCOCC1 [CBK261733]	90.8%	–
COc1ccc(C(=O)Nc2cccc3nsnc23)cc1OC [CBK260973]	92.2%	–
c1ccc(C2=NN=C(N3CCOCC3)SC2)cc1 [CBK006876G]	97.3%	–
CC(Sc1ccc(Cl)cc1)C(=O)NCCN1CCOCC1 (stereo not drawn) [CBK269316]	111%	–
O=C(Cn1c(NCCO)nc2ccccc21)C12CC3CC(CC(C3)C1)C2 [CBK262129B]	85.4%	–
COc1ccccc1NC(=O)/C(=C\c1cccnc1)NC(=O)c1ccccc1 [CBK261649]	89.6%	–
O=C(Cc1cccc(O)c1)N1CCCC1c1nc2ccccc2[nH]1 (stereo not drawn) [CBK282346]	91.9%	–

Structure (SMILES)	viability at 28.5 h, 10 µM	viability at 28.5 h, 10 µM (bulk resorufin, single well)
COCCNc1nccnc1-c1cccnc1 [CBK037376]	102%	–
C=C1C2(C(=O)N3CCC(Oc4cccnc4)CC3)CCC(C2)C1(C)C (stereo not drawn) [CBK282082]	107%	–
Cc1cc(NC(=O)CN(C)Cc2ccc(Br)cc2)on1 [CBK305599]	97.3%	–
CCN(CC)C(=O)c1ccc(-n2ccnc2)c(-n2cccc2)c1 [CBK285371]	86.3%	–
COCCC(=O)N[C@H]1CC[C@]2(C)CCC([C@H](C)C(=O)N3CCC(C)CC3)[C@H](O)[C@H]2[C@@H]1C (stereo partly drawn) [CBK289451]	103%	–
CCOc1ccc(NC(=O)NC(=O)C2CCN(C(C)=O)CC2)cc1 [CBK034852]	119%	–
N=c1c2c(-c3ccccc3)c(-c3ccccc3)n(Cc3ccco3)c2ncn1CCN1CCOCC1 [CBK268545]	93.5%	–
O=C(O)COc1ccc(/C=N/n2cnnc2)cc1Cl [CBK263902]	99.3%	–
CC(C)c1ccc(C(=O)N2CCC(n3cnc4cccnc43)CC2)cc1 [CBK282370]	82.3%	–
O=C(O)CCC(=O)Nc1ccc(-c2nc3ccccc3o2)cc1 [CBK261330]	98%	–
Cc1nc(C2(O)CCCN(Cc3cccc(F)c3)CC2)sc1CCOc1ccccc1 (stereo not drawn) [CBK286024]	89.6%	–
CN(C)C(=O)CN1C(=O)N2CCCN=C2c2ccc(Cl)cc21 [CBK284392]	98.2%	–
O=C(Nc1ncn(CC(=O)N2CCCCCC2)n1)c1cccs1 [CBK304953]	78.1%	–
CCc1ncc2c(n1)CN(Cc1cc(=O)n3cccc(C)c3n1)CC2 [CBK305914]	84.6%	–
NS(=O)(=O)c1ccc(CNC(=S)NC2CCCC2)cc1 [CBK265802]	97.8%	–
Cc1cc(C(=O)NCc2ccc(C(=O)O)cc2)no1 [CBK268108]	98.3%	–
O=C(O)C1C2CCC(O2)C1C(=O)NCc1ccco1 (stereo not drawn) [CBK263675]	96.8%	–
O=C(Nc1ccncc1)c1cccn(Cc2ccccc2F)c1=O [CBK287738]	111%	–
CSc1nsc(SCC(=O)Nc2ccc3c(c2)OCO3)n1 [CBK270044]	88.6%	–
O=C(C1CCCCC1)N1CCC(c2n[nH]c3ncccc23)CC1 [CBK284905]	85.7%	–
Clc1ccc(OCc2nc3ccccc3n2CCOc2ccccc2)c(Cl)c1 [CBK264728]	94.8%	–
O=c1[nH]nc2ccc(S(=O)(=O)N3CCCCC3)cn12 [CBK288459]	89.5%	–
COc1cc(C=CC(=O)N(C)c2ccccc2C(=O)O)cc(OC)c1OC [CBK296136]	93.1%	–

Structure (SMILES)	viability at 28.5 h, 10 µM	viability at 28.5 h, 10 µM (bulk resorufin, single well)
O=C(CSCc1ccccc1Cl)Nc1ccc(-c2nnc(-c3ccccc3)o2)cc1 [CBK268656]	111%	–
NC(=S)Nc1nc(-c2ccc(Br)cc2)cs1 [CBK023259]	100%	–
COc1ccc(-n2c(S)nnc2-c2cccs2)cc1 [CBK266832]	103%	–
NCCCN(Cc1ccco1)C1CCCC1 [CBK268856]	109%	–
Cc1cc(C)cc(OCC(=O)Nc2c(C#N)c(C)nn2C)c1 [CBK304791]	110%	–
COCc1cc(C)nc(NCCO)c1C#N [CBK262556]	96.6%	–
Cc1c(Cc2ccccc2)c(N2CCN(C3c4ccccc4-c4ccccc43)CC2)n2c(nc3ccccc32)c1C#N [CBK263124]	111%	–
COC(=O)[C@@H]1Cc2ncn(Cc3ccc(Cl)cc3)c2CN1C(=O)c1ccc(OC)cc1 [CBK288983]	84.2%	–
CN(C)c1cccc(Oc2nc3c(c(=O)n(C)c(=O)n3C)n2C)c1 [CBK270109]	97.8%	–
CCOC(=O)C1CCN(CC(=O)Nc2ccc(S(N)(=O)=O)cc2)CC1 [CBK266118]	94%	–
CSc1nnc(CCCNC(=O)c2cccc(C#N)c2)n1C1CCCC1 [CBK305459]	80.9%	–
COc1ccc([C@@]23CC[C@@H](NC(=O)c4ccc(-c5ccccc5)cc4)CC2N(C)CC3)cc1OC (stereo partly drawn) [CBK074973T]	89.6%	–
O=S(=O)(c1ccc(OC(F)(F)F)cc1)N1CCCCC1CO (stereo not drawn) [CBK051527]	91.7%	–
Cc1ccc(Cl)cc1NC(=O)c1cnc2scc(C)n2c1=O [CBK287464]	98.7%	–
CC(C)(C)c1n[nH]c(C2CN(C(=O)CCc3cscn3)CCO2)n1 (stereo not drawn) [CBK305205]	89.7%	–
O=C(OCc1ccccc1)N1CCN(C(=O)c2cc3cc(Br)ccc3[nH]2)CC1 [CBK154991]	97.5%	–
OC(Cn1c(Cc2ccccc2)nc2ccccc21)Cn1c2ccccc2c2ccccc21 (stereo not drawn) [CBK262570]	95.2%	–
COCCNS(=O)(=O)c1cc(OCC(N)=O)c(C)cc1Cl [CBK266461]	99.3%	–
COc1ccc(NS(=O)(=O)c2cccs2)c(OC)c1 [CBK043915]	93%	–
CN(C)CCNC(=O)c1ccc(-c2ccccc2S(=O)(=O)Nc2ccc(C(=O)O)c(O)c2)cc1 [CBK174050]	106%	–
O=C(NC(=S)Nc1cccc(-c2nc3cc(Cl)ccc3o2)c1)c1ccccc1Br [CBK263973]	95.8%	–
